Measurements reported in ChEMBL document CHEMBL1121377, “Synthesis and biological activities of chloroethylurea, methylurea, and nitrosourea analogues of N-deacetylmethylthiocolchicine” (1980).

Key:
Assay type in all cases: functional
[1] = tested on: Human alphaherpesvirus 1; test: Percent inhibition of herpes simplex type-1 virus at the concentration of 50 uM
[2] = tested on: L1210; test: In vitro inhibitory activity against murine leukemia L1210 cells; details: Mus musculus, read-out: ED50 (the source's name)
[3] = In vitro inhibitory activity against Sarcoma 180 cells; details: Mus musculus, read-out: ED50 (the source's name)
[4] = tested on: Human alphaherpesvirus 1; test: Percent inhibition of herpes simplex type-1 virus at the concentration of 175 uM
[5] = tested on: Human alphaherpesvirus 1; test: Percent inhibition of herpes simplex type-1 virus at the concentration of 20 uM
[6] = tested on: Human alphaherpesvirus 1; test: Percent inhibition of herpes simplex type-1 virus at the concentration of 1 uM
[7] = tested on: Human alphaherpesvirus 1; test: Percent inhibition of herpes simplex type-1 virus at the concentration of 10 uM

SMILES	EC50 [2]	EC50 [3]	also measured
O=c1[nH]c(=O)n([C@H]2C[C@H](O)[C@@H](CO)O2)cc1I [IDOXURIDINE]	–	–	inhibition at 50 µM [1]: 99.3%
CNC(=O)NC1CCc2cc(OC)c(OC)c(OC)c2-c2ccc(SC)c(=O)cc21 (centres undefined)	33 nM	29 nM	inhibition at 175 µM [4]: 85%
O=NN(CCCl)C(=O)NCCCl [CARMUSTINE]	4000 nM	–	–

The remaining compounds from weak to strong by EC50 [2], led by results:

EC50 [2]	EC50 [3]	SMILES	also measured
18 nM	26 nM	COc1cc2c(c(OC)c1OC)-c1ccc(SC)c(=O)cc1C(NC(=O)N(C)N=O)CC2 (centres undefined)	inhibition at 10 µM [7]: 86%
16 nM	30 nM	COc1cc2c(c(OC)c1OC)-c1ccc(SC)c(=O)cc1C(NC(=O)NCCCl)CC2 (centres undefined)	inhibition at 20 µM [5]: 72%
12 nM	27 nM	COc1cc2c(c(OC)c1OC)-c1ccc(SC)c(=O)cc1C(NC(=O)N(CCCl)N=O)CC2 (centres undefined)	inhibition at 1 µM [6]: 76%
